Measurements from ChEMBL document CHEMBL1201862, “PubChem BioAssay data set” (2004).
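Values below derive from 48-hour exposures of cells grown in 96-well plates, with endpoints linearly interpolated between the two concentrations bracketing the appropriate inhibition level. GI50: concentration for 50% inhibition of growth.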 Calls of active or inactive are those of the source. Rule as the data show it: active = GI50 up to about 1.1 µM and inactive = higher.

Legend:
Assay in all cases: growth of human tumour cells (NCI), 48 h
[1] = test system: IGROV-1
[2] = test system: OVCAR-5
[3] = test system: T47D
[4] = test system: SR
[5] = test system: NCI-H522
[6] = test system: CCRF-CEM
[7] = test system: HCT-15
[8] = test system: RPMI-8226
[9] = test system: KM12
[10] = test system: NCI-H23
[11] = test system: SW-620
[12] = test system: CAKI-1
[13] = test system: SF-539
[14] = test system: Malme-3M
[15] = test system: MCF7
[16] = test system: EKVX
[17] = test system: U-251
[18] = test system: NCI-H226
[19] = test system: UO-31
[20] = test system: Hs-578T
[21] = test system: SNB-19
[22] = test system: PC-3
[23] = test system: SK-MEL-5
[24] = test system: OVCAR-3
[25] = test system: SN12C
[26] = test system: HL-60
[27] = test system: SK-MEL-2
[28] = test system: MDA-MB-231
[29] = test system: LOX IMVI
[30] = test system: SF-295
[31] = test system: 786-0
[32] = test system: BT-549
[33] = test system: HOP-62
[34] = test system: SNB-75
[35] = test system: A498
[36] = test system: SK-MEL-28
[37] = test system: MOLT-4
[38] = test system: NCI/ADR-RES
[39] = test system: COLO 205
[40] = test system: OVCAR-4
[41] = test system: HOP-92
[42] = test system: M14
[43] = test system: HT-29
[44] = test system: ACHN
[45] = test system: K562
[46] = test system: DU-145
[47] = test system: UACC-62
[48] = test system: HCT-116
[49] = test system: MDA-N
[50] = test system: SF-268
[51] = test system: OVCAR-8
[52] = test system: SK-OV-3
[53] = test system: MDA-MB-435
[54] = test system: A549
[55] = test system: RXF 393
[56] = test system: UACC-257
[57] = test system: TK-10
[58] = test system: NCI-H460
[59] = test system: HCC 2998

Question: What does the source list for `O=C(CSc1nc2ccc(I)cc2c(=O)n1Cc1ccccc1)Nc1ccccc1`?
Answer: GI50 [1]: 25.2 µM (inactive); GI50 [2]: 30.6 µM (inactive); GI50 [3]: 21.2 µM (inactive); GI50 [4]: 11.2 µM (inactive); GI50 [5]: 16 µM (inactive); GI50 [6]: > 100 µM (inactive); GI50 [7]: 41.5 µM; GI50 [8]: 88.3 µM (inactive); GI50 [9]: 94.4 µM (inactive); GI50 [10]: 69.2 µM (inactive); GI50 [11]: 92.7 µM (inactive); GI50 [12]: 12.9 µM (inactive); GI50 [13]: 3.08 µM (inactive); GI50 [14]: 6.15 µM (inactive); GI50 [15]: 50.6 µM (inactive); GI50 [16]: 3.55 µM (inactive); GI50 [17]: 14.3 µM (inactive); GI50 [18]: 11.9 µM (inactive); GI50 [19]: 0.331 µM (active); GI50 [20]: 3.65 µM (inactive); GI50 [21]: 17.5 µM (inactive); GI50 [22]: 11.4 µM (inactive); GI50 [23]: 32.1 µM (inactive); GI50 [24]: 10.8 µM (inactive); GI50 [25]: 19.6 µM (inactive); GI50 [26]: > 100 µM (inactive); GI50 [27]: 13.8 µM (inactive); GI50 [28]: 16.5 µM (inactive); GI50 [29]: 50.7 µM (inactive); GI50 [30]: 14.9 µM (inactive); GI50 [31]: 8.57 µM (inactive); GI50 [32]: 20 µM (inactive); GI50 [33]: 5.7 µM (inactive); GI50 [34]: 2.94 µM (inactive); GI50 [35]: 15.6 µM (inactive); GI50 [36]: 35.6 µM (inactive); GI50 [37]: > 100 µM (inactive); GI50 [38]: 13.8 µM (inactive); GI50 [39]: > 100 µM (inactive); GI50 [40]: 14.3 µM (inactive); GI50 [41]: 19.3 µM (inactive); GI50 [42]: 52.1 µM (inactive); GI50 [43]: > 100 µM (inactive); GI50 [44]: 26 µM (inactive); GI50 [45]: 39.5 µM (inactive); GI50 [46]: 29.9 µM (inactive); GI50 [47]: 46.6 µM (inactive); GI50 [48]: 42.1 µM (inactive); GI50 [49]: > 100 µM (inactive); GI50 [50]: 8.77 µM (inactive); GI50 [51]: 6.75 µM (inactive); GI50 [52]: 12.1 µM (inactive); GI50 [53]: > 100 µM (inactive); GI50 [54]: 26.6 µM (inactive); GI50 [55]: 10 µM (inactive)

Question: Which GI50 [1] does the source give for `COc1cc(O)c2c(O)c3c(=O)oc(C)cc3c(OC)c2c1` [PAEPALANTINE] here?
Answer: Its GI50 is 27 µM (inactive).

Question: What about the GI50 [2] of the same compound?
Answer: The GI50 was 32 µM (inactive).

Question: What about the GI50 [3] of the same compound?
Answer: Its GI50 is 32.4 µM (inactive).

Question: What about the GI50 [4] of the same compound?
Answer: Its GI50 is 26.1 µM (inactive).

Question: What about the GI50 [5] of the same compound?
Answer: Its GI50 is 35.4 µM (inactive).

Question: What about the GI50 [6] of the same compound?
Answer: Its GI50 is 21.4 µM (inactive).

Question: And the GI50 [7]?
Answer: The GI50 was 28.3 µM.

Question: What about the GI50 [8] of the same compound?
Answer: The GI50 was 20 µM (inactive).

Question: What about the GI50 [9] of the same compound?
Answer: Its GI50 is 27.5 µM (inactive).

Question: What about the GI50 [10] of the same compound?
Answer: Its GI50 is 23.6 µM (inactive).

Question: What about the GI50 [56] of the same compound?
Answer: Its GI50 is 31 µM (inactive).

Question: And the GI50 [11]?
Answer: The GI50 was 34.2 µM (inactive).

Question: What about the GI50 [12] of the same compound?
Answer: Its GI50 is 31 µM (inactive).

Question: And the GI50 [13]?
Answer: Its GI50 is 21 µM (inactive).

Question: What about the GI50 [14] of the same compound?
Answer: Its GI50 is 21.4 µM (inactive).

Question: And the GI50 [15]?
Answer: Its GI50 is 32.6 µM (inactive).

Question: And the GI50 [16]?
Answer: Its GI50 is 29.9 µM (inactive).

Question: What about the GI50 [17] of the same compound?
Answer: The GI50 was 32.5 µM (inactive).

Question: What about the GI50 [19] of the same compound?
Answer: The GI50 was 31.8 µM (inactive).

Question: What about the GI50 [20] of the same compound?
Answer: The GI50 was 29.6 µM (inactive).

Question: What about the GI50 [21] of the same compound?
Answer: The GI50 was 39.3 µM (inactive).

Question: And the GI50 [22]?
Answer: Its GI50 is 28.4 µM (inactive).

Question: And the GI50 [23]?
Answer: The GI50 was 25.2 µM (inactive).

Question: What about the GI50 [24] of the same compound?
Answer: Its GI50 is 27.2 µM (inactive).

Question: What about the GI50 [57] of the same compound?
Answer: The GI50 was 29 µM (inactive).

Question: What about the GI50 [25] of the same compound?
Answer: The GI50 was 24.1 µM (inactive).

Question: What about the GI50 [26] of the same compound?
Answer: Its GI50 is 27.3 µM (inactive).

Question: And the GI50 [27]?
Answer: The GI50 was 31.9 µM (inactive).

Question: What about the GI50 [28] of the same compound?
Answer: The GI50 was 28.4 µM (inactive).

Question: What about the GI50 [30] of the same compound?
Answer: The GI50 was 27 µM (inactive).

Question: And the GI50 [31]?
Answer: Its GI50 is 31.1 µM (inactive).

Question: And the GI50 [32]?
Answer: The GI50 was 34.8 µM (inactive).

Question: What about the GI50 [33] of the same compound?
Answer: Its GI50 is 30.3 µM (inactive).

Question: And the GI50 [35]?
Answer: The GI50 was 61.7 µM (inactive).

Question: And the GI50 [36]?
Answer: The GI50 was 25 µM (inactive).

Question: What about the GI50 [37] of the same compound?
Answer: The GI50 was 23 µM (inactive).

Question: And the GI50 [38]?
Answer: The GI50 was 19.6 µM (inactive).

Question: What about the GI50 [39] of the same compound?
Answer: Its GI50 is 19.2 µM (inactive).

Question: And the GI50 [40]?
Answer: Its GI50 is 14.7 µM (inactive).

Question: What about the GI50 [41] of the same compound?
Answer: The GI50 was 16.1 µM (inactive).

Question: What about the GI50 [42] of the same compound?
Answer: Its GI50 is 32 µM (inactive).

Question: And the GI50 [43]?
Answer: The GI50 was 21.2 µM (inactive).

Question: And the GI50 [44]?
Answer: Its GI50 is 23.7 µM (inactive).

Question: And the GI50 [45]?
Answer: The GI50 was 23 µM (inactive).

Question: What about the GI50 [46] of the same compound?
Answer: Its GI50 is 41.6 µM (inactive).

Question: What about the GI50 [58] of the same compound?
Answer: Its GI50 is 32.4 µM (inactive).

Question: And the GI50 [47]?
Answer: Its GI50 is 21.9 µM (inactive).

Question: And the GI50 [48]?
Answer: The GI50 was 20.6 µM (inactive).

Question: What about the GI50 [49] of the same compound?
Answer: The GI50 was 27.4 µM (inactive).

Question: What about the GI50 [50] of the same compound?
Answer: Its GI50 is 34.3 µM (inactive).

Question: And the GI50 [51]?
Answer: Its GI50 is 27.2 µM (inactive).

Question: And the GI50 [52]?
Answer: Its GI50 is 24.5 µM (inactive).

Question: What about the GI50 [53] of the same compound?
Answer: Its GI50 is 18.3 µM (inactive).

Question: What about the GI50 [54] of the same compound?
Answer: Its GI50 is 25.8 µM (inactive).

Question: What about the GI50 [55] of the same compound?
Answer: Its GI50 is 49.8 µM (inactive).

Question: Which results are given for `O=C(O)c1c2c(c(O)c3c1CN(C1CCCCC1)CO3)OCN(C1CCCCC1)C2`?
Answer: GI50 [1]: 74.5 µM (inactive); GI50 [2]: > 100 µM (inactive); GI50 [3]: > 100 µM (inactive); GI50 [4]: 27.2 µM (inactive); GI50 [5]: 29.1 µM (inactive); GI50 [6]: 10.4 µM (inactive); GI50 [7]: > 100 µM; GI50 [8]: 40.5 µM (inactive); GI50 [9]: > 100 µM (inactive); GI50 [10]: > 100 µM (inactive); GI50 [56]: > 100 µM (inactive); GI50 [11]: 22 µM (inactive); GI50 [12]: > 100 µM (inactive); GI50 [13]: 37 µM (inactive); GI50 [14]: > 100 µM (inactive); GI50 [15]: 20.1 µM (inactive); GI50 [16]: 47.1 µM (inactive); GI50 [17]: 42.6 µM (inactive); GI50 [19]: > 100 µM (inactive); GI50 [20]: > 100 µM (inactive); GI50 [21]: > 100 µM (inactive); GI50 [22]: > 100 µM (inactive); GI50 [23]: > 100 µM (inactive); GI50 [24]: 69 µM (inactive); GI50 [57]: > 100 µM (inactive); GI50 [25]: 27.2 µM (inactive); GI50 [27]: > 100 µM (inactive); GI50 [28]: 46.7 µM (inactive); GI50 [29]: 21.3 µM (inactive); GI50 [30]: 92.7 µM (inactive); GI50 [31]: 68.4 µM (inactive); GI50 [32]: > 100 µM (inactive); GI50 [33]: 83.2 µM (inactive); GI50 [34]: > 100 µM (inactive); GI50 [35]: > 100 µM (inactive); GI50 [36]: > 100 µM (inactive); GI50 [37]: 18.5 µM (inactive); GI50 [38]: > 100 µM (inactive); GI50 [39]: > 100 µM (inactive); GI50 [59]: 21.6 µM (inactive); GI50 [40]: > 100 µM (inactive); GI50 [41]: > 100 µM (inactive); GI50 [42]: > 100 µM (inactive); GI50 [43]: > 100 µM (inactive); GI50 [44]: > 100 µM (inactive); GI50 [45]: 31.3 µM (inactive); GI50 [46]: > 100 µM (inactive); GI50 [58]: 19 µM (inactive); GI50 [47]: > 100 µM (inactive); GI50 [48]: 39.3 µM (inactive); GI50 [49]: > 100 µM (inactive); GI50 [50]: 46.3 µM (inactive); GI50 [51]: 45.1 µM (inactive); GI50 [52]: > 100 µM (inactive); GI50 [53]: 58.1 µM (inactive); GI50 [54]: > 100 µM (inactive); GI50 [55]: 63.4 µM (inactive)
